We go through 29 compounds from patent EP1149106B1, “4,5-AZOLO-OXINDOLES” (F. HOFFMANN-LA ROCHE AG, priority 1998, dated 2000).

This assay concerns the target T1, Cyclin E/CDK2 (Homo sapiens, UniProt P24941).
T1 construct: made in house; host or cells: insect cells
The assay can be described thus: CDK2 FlashPlate Assay (Rb phosphorylation, 33P-ATP). The settings on record: for IC50: recombinant human Cyclin E/CDK2, Rb substrate, 25 minutes at room temperature; for inhibition at 0.5 µM: Concentration 0.5 µM. It counts as biochemical. As to the method:
To determine inhibition of CDK2 activity, purified recombinant retinoblastoma (Rb) protein was coated on 96 well FlashPlates (New England Nuclear, Boston, MA). Rb is a natural substrate for phosphorylation by CDK2 (Herwig and Strauss Eurr. J. Biochem., Vol. 246 (1997) pp. 581-601 and references therein). Recombinant active human Cyclin E/CDK2 complexes were partially purified from extracts of insect cells. The active Cyclin E/CDK2 was added to the Rb-coated FlashPlates along with ^33P-ATP and dilutions of test compounds. Plates were incubated for 25 minutes at room temperature with shaking, then washed and counted in the Topcount scintillation counter (Packard Instrument Co., Downers Grove, IL). Dilutions of test compounds were tested in duplicate in each assay. The percent inhibition of Rb phosphorylation, which is a measure of the inhibition of CDK2 activity, was determined according to the following formula: [formula] where "test compound" refers to the average counts per minute of the test duplicates, "nonspecific" refers to the average counts per minute when no Cyclin E/CDK2 was added, and "total" refers to the average counts per minute when no compound was added.

Where only a bound is given, the exact number is not on record here.

In the case of `O=C1Nc2ccc3[nH]c(-c4ccccc4)nc3c2/C1=C/c1ccc[nH]1` [O, (Z)-2-Phenyl-8-[(1H-pyrrol-2-yl)methylene]-3,6,7,8-tetrahydro-pyrrolo[3,2-e]benzimidazol-7-one], the IC50 (in general, the concentration that inhibits the measured activity by half) was less than 3.5 µM. As for `CCOC(=O)c1ccc(Nc2nc3c4c(ccc3[nH]2)NC(=O)/C4=C\c2[nH]ccc2OC)cc1` [CC, (Z)-4-[[8-[(3-Methoxy-1H-pyrrol-2-yl)methylene]-7-oxo-3,6,7,8-tetrahydro-imidazo[4,5-e]indol-2-yl]amino]-benzoic acid ethyl ester], the inhibition (as a rule, the drop in the measured response relative to a control, in per cent) at 0.5 µM is less than 50%.

Compound `COc1ccc(Nc2nc3c4c(ccc3[nH]2)NC(=O)/C4=C\c2[nH]ccc2OC)cc1` [Z, (Z)-2-[N-(4-Methoxyphenyl)amino]-8-[(3-methoxy-1H-pyrrol-2-yl)methylene]-3,6,7,8-tetrahydro-pyrrolo[3,2-e]benzimidazol-7-one] gave an inhibition at 0.5 µM of less than 50%. With `COc1cc[nH]c1/C=C1\C(=O)Nc2ccc3[nH]c(-c4ccccc4)nc3c21` [Q, (Z)-8-[(3-Methoxy-1H-pyrrol-2-yl)methylene]-2-phenyl-3,6,7,8-tatrahydro-pyrrolo[3,2-e]benzimidazol-7-one], the IC50 was less than 3.5 µM. On to `Cc1nc[nH]c1/C=C1\C(=O)Nc2ccc([N+](=O)[O-])c(F)c21` [OO, (Z)-1,3-Dihydro-4-fluoro-3-[(4-methyl-1H-imidazol-5-yl)methylene]-5-nitro-2H-indol-2-one], for which the IC50 is less than 3.5 µM. For the compound `COc1cc[nH]c1/C=C1\C(=O)Nc2ccc3[nH]c(NCc4ccc5c(c4)OCO5)nc3c21` [VV, (Z)-2-[N-(1,3-Benzodioxol-5-yl)methylamino]-8-[(3-methoxy-1H-pyrrol-2-yl)methylene]-3,6,7,8-tetrahydro-pyrrolo[3,2-e]-benzimidazol-7-one], the inhibition at 0.5 µM was less than 50%. For `COc1cc[nH]c1/C=C1\C(=O)Nc2ccc3[nH]c(Nc4ccc(N(C)C)cc4)nc3c21` [DD, (Z)-2-[N-(4-Dimethylaminophenyl)amino]-8-[(3-methoxy-1H-pyrrol-2-yl)methylene]-3,6,7,8-tetrahydro-pyrrolo[3,2-e]-benzimidazol-7-one], the IC50 was less than 3.5 µM. In the case of `COc1cc[nH]c1/C=C1\C(=O)Nc2ccc3[nH]c(Nc4ccc5c(c4)CCC5)nc3c21` [YY, (Z)-2-[N-(2,3-Dihydro-1H-inden-5-yl)amino]-8-[(3-methoxy-1H-pyrrol-2-yl)methylene]-3,6,7,8-tetrahydro-pyrrolo[3,2-e]-benzimidazol-7-one], the inhibition at 0.5 µM is less than 50%. As to `COc1cc[nH]c1/C=C1\C(=O)Nc2ccc3[nH]c(CCCc4ccccc4)nc3c21` [W, (Z)-2-[3-(Phenyl)propyl]-8-[(3-methoxy-1H-pyrrol-2-yl)methylene]-3,6,7,8-tetrahydro-pyrrolo[3,2-e]benzimidazol-7-one], the IC50 was less than 3.5 µM. `COc1cc[nH]c1/C=C1\C(=O)Nc2ccc3[nH]c(NCc4cccc5ccccc45)nc3c21` [WW, (Z)-8-[(3-Methoxy-1H-pyrrol-2-yl)methylene]-2-[N-(1-naphthalenyl)methylamino]-3,6,7,8-tetrahydro-pyrrolo[3,2-e]-benzimidazol-7-one] registered an inhibition at 0.5 µM of less than 50%. Take `Cc1nc[nH]c1/C=C1\C(=O)Nc2ccc3[nH]cnc3c21` [SS]: the half-inhibitory concentration (IC50) was less than 3.5 µM. `Cc1nc[nH]c1/C=C1\C(=O)Nc2ccc([N+](=O)[O-])c(N)c21` [QQ, (Z)-4-Amino-1,3-dihydro-3-[(4-methyl-1H-imidazol-5-yl)methylene]-5-nitro-2H-indol-2-one]: the IC50 was less than 3.5 µM. `COc1ccccc1Nc1nc2c3c(ccc2[nH]1)NC(=O)/C3=C\c1[nH]ccc1OC` [II, (Z)-2-[N-(2-Methoxyphenyl)amino]-8-[(3-methoxy-1H-pyrrol-2-yl)methylene]-3,6,7,8-tetrahydro-pyrrolo[3,2-e]benzimidazol-7-one]: the inhibition at 0.5 µM is less than 50%. Take `Cc1nc[nH]c1/C=C1\C(=O)Nc2ccc([N+](=O)[O-])c(N=[N+]=[N-])c21` [PP, (Z)-4-Azido-1,3-dihydro-3-[(4-methyl-1H-imidazol-5-yl)methylene]-5-nitro-2H-indol-2-one]: the IC50 is less than 3.5 µM. Take `Cc1nc[nH]c1/C=C1\C(=O)Nc2ccc(N)c(N)c21` [RR, (Z)-4,5-Diamino-1,3-dihydro-3-[(4-methyl-1H-imidazol-5-yl)methylene]-2H-indol-2-one]: the IC50 was less than 3.5 µM. Consider `COCCCNc1nc2c3c(ccc2[nH]1)NC(=O)/C3=C\c1[nH]ccc1OC` [X, (Z)-2-[N-(3-Methoxypropyl)amino]-8-[(3-methoxy-1H-pyrrol-2-yl)methylene]-3,6,7,8-tetrahydro-pyrrolo[3,2-e]benzimidazol-7-one], for which the IC50 was less than 3.5 µM. With `COc1cc[nH]c1/C=C1\C(=O)Nc2ccc3[nH]c(NCCCc4ccccc4)nc3c21` [XX, (Z)-8-[(3-Methoxy-1H-pyrrol-2-yl)methylene]-2-[N-(3-phenylpropyl)amino]-3,6,7,8-tetrahydro-pyrrolo[3,2-e]benzimidazol-7-one], the inhibition at 0.5 µM is less than 50%.

`COc1ccc(Nc2nc3c4c(ccc3[nH]2)NC(=O)/C4=C\c2[nH]ccc2OC)cc1OC` [Y, (Z)-2-[N-(3,4-Dimethoxyphenyl)amino]-8-[(3-methoxy-1H-pyrrol-2-yl)methylene]-3,6,7,8-tetrahydro-pyrrolo[3,2-e]benzimidazol-7-one]: the inhibition at 0.5 µM is less than 50%. The compound `COC(=O)c1ccc(Nc2nc3c4c(ccc3[nH]2)NC(=O)/C4=C\c2[nH]ccc2OC)cc1` [EE, (Z)-4-[[8-[(3-Methoxy-1H-pyrrol-2-yl)methylene]-7-oxo-3,6,7,8-tetrahydro-imidazo[4,5-e]indol-2-yl]amino]-benzoic acid methyl ester] showed an inhibition at 0.5 µM of less than 50%. The compound `COc1cc[nH]c1/C=C1\C(=O)Nc2ccc3[nH]c(NCCCCc4ccccc4)nc3c21` [JJ, (Z)-8-[(3-Methoxy-1H-pyrrol-2-yl)methylene]-2-[N-(4-phenylbutyl)amino]-3,6,7,8-tetrahydro-pyrrolo[3,2-e]benzimidazol-7-one] had an inhibition at 0.5 µM of less than 50%.

For the compound `COc1cc[nH]c1/C=C1\C(=O)Nc2ccc3nc[nH]c3c21` [TT, (Z)-8-[(3-Methoxy-1H-pyrrol-2-yl)methylene]-3,6,7,8-tetrahydro-pyrrolo-[3,2-e]benzimidazol-7-one], the IC50 is less than 3.5 µM. As for `COc1cc[nH]c1/C=C1\C(=O)Nc2ccc3[nH]c(CCc4ccc(O)cc4)nc3c21` [V, (Z)-2-[2-(4-Hydroxyphenyl)ethyl]-8-[(3-methoxy-1H-pyrrol-2-yl)methylene]-3,6,7,8-tetrahydro-pyrrolo[3,2-e]benzimidazol-7-one], the IC50 was less than 3.5 µM. As to `COc1cc[nH]c1/C=C1\C(=O)Nc2ccc3[nH]c(-c4ccccc4O)nc3c21` [S, (Z)-2-(2-Hydroxyphenyl)-8-[(3-methoxy-1H-pyrrol-2-yl)methylene]-3,6,7,8-tetrahydro-pyrrolo[3;2-e]benzimidazol-7-one], the concentration for half-maximal inhibition (IC50) was less than 3.5 µM. `COc1ccc(CCNc2nc3c4c(ccc3[nH]2)NC(=O)/C4=C\c2[nH]ccc2OC)cc1OC` [GG, (Z)-2-[N-[2-(3,4-Dimethoxyphenyl)ethyl]amino]-8-[(3-methoxy-1H-pyrrol-2-yl)methylene]-3,6,7,8-tetrahydro-pyrrolo[3,2-e]-benzimidazol-7-one]: the inhibition at 0.5 µM is less than 50%. As for `COc1ccc(Cc2nc3c4c(ccc3[nH]2)NC(=O)/C4=C\c2[nH]ccc2OC)cc1` [T, (Z)-2-[(4-Methoxyphenyl)methyl]-8-[(3-methoxy-1H-pyrrol-2-yl)methylene]-3,6,7,8-tetrahydro-pyrrolo[3,2-e]benzimidazol-7-one], the IC50 was less than 3.5 µM.

In the case of `COc1cc[nH]c1/C=C1\C(=O)Nc2ccc3[nH]c(NC(C)c4ccccc4)nc3c21` (racemic) [HH, rac-(Z)-8-[(3-Methoxy-1H-pyrrol-2-yl)methylene]-2-[N-(1-phenylethyl)amino]-3,6,7,8-tetrahydro-pyrrolo[3,2-e]benzimidazol-7-one], the IC50 was less than 3.5 µM. Regarding `COc1cc[nH]c1/C=C1\C(=O)Nc2ccc3[nH]c(NCC4CCCO4)nc3c21` (centres unmarked) [KK, (Z)-8-[(3-Methoxy-1H-pyrrol-2-yl)methylene]-2-[N-[(2-tetrahydrofuranyl)methyl]-amino]-3,6,7,8-tetrahydro-pyrrolo[3,2-e] benzimidazol-7-one], the IC50 is less than 3.5 µM. Regarding `COc1cc[nH]c1/C=C1\C(=O)Nc2ccc3[nH]c(C(O)c4ccccc4)nc3c21` (racemic) [U, rac-(Z)-2-(1-Hydroxy-1-phenyl-methyl)-8-[(3-methoxy-1H-pyrrol-2-yl)methylene]-3,6,7,8-tetrahydro-pyrrolo[3,2-e]benzimidazol-7-one], the IC50 was less than 3.5 µM.

As to `COc1cc[nH]c1/C=C1\C(=O)Nc2ccc3[nH]c(Nc4cccc(C(C)=O)c4)nc3c21` [BB, (Z)-2-[N-(3-Acetylphenyl)amino]-8-[(3-methoxy-1H-pyrrol-2-yl)methylene]-3,6,7,8-tetrahydro-pyrrolo[3,2-e]benzimidazol-7-one], the inhibition at 0.5 µM is less than 50%.
